Results reported in article PMC6874179, “Development of Macrocycle Kinase Inhibitors for ALK2 Using Fibrodysplasia Ossificans Progressiva‐Derived Endothelial Cells” (JBMR Plus, 2019).

Assays:
Assay in all cases: Proqinase Kinase profiling
Assay type in all cases: biochemical
Settings in all cases: read-out: % inhibition at 100nM
ACVR1 = biological target: T1, ACVR1 (Homo sapiens, UniProt Q04771)
T1 construct: purchased DiscoverX

RIPK2 = biological target: T2, RIPK2 (Homo sapiens, UniProt O43353)
T2 construct: purchased DiscoverX

PRKX = biological target: T3, PRKX (Homo sapiens, UniProt P51817)
T3 construct: purchased DiscoverX

NTRK1 = biological target: T4, NTRK1 (Homo sapiens, UniProt P04629)
T4 construct: purchased DiscoverX

RET = biological target: T5, RET (Homo sapiens, UniProt P07949)
T5 construct: purchased DiscoverX

LRRK2_I2020T = biological target: T6, LRRK2_I2020T (Homo sapiens, UniProt Q5S007, I2020T)
T6 construct: purchased DiscoverX

PDGFRA_D842V = biological target: T7, PDGFRA_D842V (Homo sapiens, UniProt P16234, D842V)
T7 construct: purchased DiscoverX

BRAF = biological target: T8, BRAF (Homo sapiens, UniProt P15056)
T8 construct: purchased DiscoverX

DYRK2 = biological target: T9, DYRK2 (Homo sapiens, UniProt Q92630)
T9 construct: purchased DiscoverX

PRKCA = biological target: T10, PRKCA (Homo sapiens, UniProt P17252)
T10 construct: purchased DiscoverX

STK4 = biological target: T11, STK4 (Homo sapiens, UniProt Q13043)
T11 construct: purchased DiscoverX

PAK4 = biological target: T12, PAK4 (Homo sapiens, UniProt O96013)
T12 construct: purchased DiscoverX
T12 sequence (O96013 whole entry): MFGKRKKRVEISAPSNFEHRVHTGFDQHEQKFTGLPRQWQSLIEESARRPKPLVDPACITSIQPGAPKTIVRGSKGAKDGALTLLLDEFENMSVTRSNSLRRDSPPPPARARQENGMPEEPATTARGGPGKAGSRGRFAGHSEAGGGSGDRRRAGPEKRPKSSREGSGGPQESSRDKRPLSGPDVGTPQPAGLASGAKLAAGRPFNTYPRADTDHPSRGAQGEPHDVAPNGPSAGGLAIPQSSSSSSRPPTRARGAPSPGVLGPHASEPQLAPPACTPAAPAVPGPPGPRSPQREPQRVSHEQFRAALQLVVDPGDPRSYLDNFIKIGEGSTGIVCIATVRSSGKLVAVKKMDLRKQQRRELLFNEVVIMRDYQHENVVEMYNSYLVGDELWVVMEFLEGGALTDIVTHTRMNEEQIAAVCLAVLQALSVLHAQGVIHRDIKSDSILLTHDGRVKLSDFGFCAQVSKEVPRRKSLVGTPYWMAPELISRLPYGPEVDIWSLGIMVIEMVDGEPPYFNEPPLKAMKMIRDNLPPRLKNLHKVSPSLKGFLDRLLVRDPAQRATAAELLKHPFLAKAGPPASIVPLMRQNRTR

ABL1_Y253F = biological target: T13, ABL1_Y253F (Homo sapiens, UniProt P00519, Y253F)
T13 construct: purchased DiscoverX

NEK7 = biological target: T14, NEK7 (Homo sapiens, UniProt Q8TDX7)
T14 construct: purchased DiscoverX

DNAPK = biological target: T15, DNAPK (Homo sapiens, UniProt P78527)
T15 construct: purchased DiscoverX

NEK11 = biological target: T16, NEK11 (Homo sapiens, UniProt Q8NG66)
T16 construct: purchased DiscoverX

TGFbR1 = biological target: T17, TGFbR1 (Homo sapiens, UniProt P36897)
T17 construct: purchased DiscoverX

PAK6 = biological target: T18, PAK6 (Homo sapiens, UniProt Q9NQU5)
T18 construct: purchased DiscoverX

STK25 = biological target: T19, STK25 (Homo sapiens, UniProt O00506)
T19 construct: purchased DiscoverX
T19 sequence (O00506 whole entry): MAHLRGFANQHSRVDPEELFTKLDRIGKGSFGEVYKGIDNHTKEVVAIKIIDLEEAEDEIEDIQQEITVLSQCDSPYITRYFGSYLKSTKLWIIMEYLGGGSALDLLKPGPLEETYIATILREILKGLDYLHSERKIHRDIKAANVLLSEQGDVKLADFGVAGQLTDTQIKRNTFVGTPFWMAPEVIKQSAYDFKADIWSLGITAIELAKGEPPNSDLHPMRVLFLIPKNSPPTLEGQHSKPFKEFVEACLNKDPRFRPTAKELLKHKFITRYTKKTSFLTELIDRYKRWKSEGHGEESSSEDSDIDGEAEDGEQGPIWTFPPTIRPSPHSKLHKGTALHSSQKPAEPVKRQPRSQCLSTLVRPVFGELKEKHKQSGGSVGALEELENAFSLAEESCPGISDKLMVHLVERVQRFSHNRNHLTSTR

LIMK2 = biological target: T20, LIMK2 (Homo sapiens, UniProt P53671)
T20 construct: purchased DiscoverX

ROCK1 = biological target: T21, ROCK1 (Homo sapiens, UniProt Q13464)
T21 construct: purchased DiscoverX

MET_Y1230A = biological target: T22, MET_Y1230A (Homo sapiens, UniProt P08581, Y1230A)
T22 construct: purchased DiscoverX

MARK3 = biological target: T23, MARK3 (Homo sapiens, UniProt P27448)
T23 construct: purchased DiscoverX
T23 sequence (P27448 whole entry): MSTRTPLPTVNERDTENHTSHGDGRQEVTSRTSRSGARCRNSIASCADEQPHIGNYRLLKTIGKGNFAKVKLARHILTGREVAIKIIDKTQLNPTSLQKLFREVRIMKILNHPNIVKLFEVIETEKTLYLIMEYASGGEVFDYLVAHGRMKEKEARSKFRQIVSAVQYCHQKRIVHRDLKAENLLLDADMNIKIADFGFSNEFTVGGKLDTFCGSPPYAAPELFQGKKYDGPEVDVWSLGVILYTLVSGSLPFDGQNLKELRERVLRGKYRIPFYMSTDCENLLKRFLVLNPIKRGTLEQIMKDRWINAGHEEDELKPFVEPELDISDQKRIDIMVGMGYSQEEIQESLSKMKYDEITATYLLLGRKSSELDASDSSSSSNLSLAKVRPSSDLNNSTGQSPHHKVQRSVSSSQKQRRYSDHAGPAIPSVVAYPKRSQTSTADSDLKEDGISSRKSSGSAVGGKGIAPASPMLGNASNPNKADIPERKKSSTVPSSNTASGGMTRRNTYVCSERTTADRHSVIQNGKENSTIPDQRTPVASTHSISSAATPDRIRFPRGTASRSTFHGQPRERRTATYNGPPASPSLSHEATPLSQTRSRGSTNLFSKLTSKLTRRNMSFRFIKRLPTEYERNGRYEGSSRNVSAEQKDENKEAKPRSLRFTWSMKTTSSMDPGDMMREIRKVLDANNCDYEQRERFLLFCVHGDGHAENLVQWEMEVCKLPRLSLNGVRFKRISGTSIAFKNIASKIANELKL

ALK_R1275Q = biological target: T24, ALK_R1275Q (Homo sapiens, UniProt Q9UM73, R1275Q)
T24 construct: purchased DiscoverX

PRKCQ = biological target: T25, PRKCQ (Homo sapiens, UniProt Q04759)
T25 construct: purchased DiscoverX

MAPK15 = biological target: T26, MAPK15 (Homo sapiens, UniProt Q8TD08)
T26 construct: purchased DiscoverX

ADRBK2 = biological target: T27, ADRBK2 (Homo sapiens, UniProt P35626)
T27 construct: purchased DiscoverX

INSR = biological target: T28, INSR (Homo sapiens, UniProt P06213)
T28 construct: purchased DiscoverX

TLK2 = biological target: T29, TLK2 (Homo sapiens, UniProt Q86UE8)
T29 construct: purchased DiscoverX

KIT_D816V = biological target: T30, KIT_D816V (Homo sapiens, UniProt P10721, D816V)
T30 construct: purchased DiscoverX

SRPK3 = biological target: T31, SRPK3 (Homo sapiens, UniProt Q9UPE1)
T31 construct: purchased DiscoverX
T31 sequence (Q9UPE1 whole entry): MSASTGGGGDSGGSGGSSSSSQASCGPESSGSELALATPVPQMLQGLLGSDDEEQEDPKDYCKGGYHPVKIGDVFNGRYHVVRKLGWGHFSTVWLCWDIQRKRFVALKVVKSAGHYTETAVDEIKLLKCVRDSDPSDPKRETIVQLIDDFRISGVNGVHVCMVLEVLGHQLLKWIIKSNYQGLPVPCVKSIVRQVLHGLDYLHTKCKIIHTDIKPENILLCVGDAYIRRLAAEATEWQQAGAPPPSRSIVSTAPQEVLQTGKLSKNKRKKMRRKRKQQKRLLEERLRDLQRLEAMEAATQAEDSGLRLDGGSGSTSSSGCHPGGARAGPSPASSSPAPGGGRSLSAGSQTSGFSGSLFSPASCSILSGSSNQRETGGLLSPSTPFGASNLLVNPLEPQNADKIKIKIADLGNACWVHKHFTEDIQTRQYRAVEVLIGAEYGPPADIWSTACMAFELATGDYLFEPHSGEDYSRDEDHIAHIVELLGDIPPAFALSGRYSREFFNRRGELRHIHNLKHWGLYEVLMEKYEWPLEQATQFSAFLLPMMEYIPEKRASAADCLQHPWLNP

KIT_V559D_T670I = biological target: T32, KIT_V559D_T670I (Homo sapiens, UniProt P10721, T670I/V559D)
T32 construct: purchased DiscoverX

GSK3B = biological target: T33, GSK3B (Homo sapiens, UniProt P49841)
T33 construct: purchased DiscoverX

MERTK = biological target: T34, MERTK (Homo sapiens, UniProt Q12866)
T34 construct: purchased DiscoverX

FER = biological target: T35, FER (Homo sapiens, UniProt P16591)
T35 construct: purchased DiscoverX

MAP3K1 = biological target: T36, MAP3K1 (Homo sapiens, UniProt Q13233)
T36 construct: purchased DiscoverX
T36 sequence (Q13233 whole entry): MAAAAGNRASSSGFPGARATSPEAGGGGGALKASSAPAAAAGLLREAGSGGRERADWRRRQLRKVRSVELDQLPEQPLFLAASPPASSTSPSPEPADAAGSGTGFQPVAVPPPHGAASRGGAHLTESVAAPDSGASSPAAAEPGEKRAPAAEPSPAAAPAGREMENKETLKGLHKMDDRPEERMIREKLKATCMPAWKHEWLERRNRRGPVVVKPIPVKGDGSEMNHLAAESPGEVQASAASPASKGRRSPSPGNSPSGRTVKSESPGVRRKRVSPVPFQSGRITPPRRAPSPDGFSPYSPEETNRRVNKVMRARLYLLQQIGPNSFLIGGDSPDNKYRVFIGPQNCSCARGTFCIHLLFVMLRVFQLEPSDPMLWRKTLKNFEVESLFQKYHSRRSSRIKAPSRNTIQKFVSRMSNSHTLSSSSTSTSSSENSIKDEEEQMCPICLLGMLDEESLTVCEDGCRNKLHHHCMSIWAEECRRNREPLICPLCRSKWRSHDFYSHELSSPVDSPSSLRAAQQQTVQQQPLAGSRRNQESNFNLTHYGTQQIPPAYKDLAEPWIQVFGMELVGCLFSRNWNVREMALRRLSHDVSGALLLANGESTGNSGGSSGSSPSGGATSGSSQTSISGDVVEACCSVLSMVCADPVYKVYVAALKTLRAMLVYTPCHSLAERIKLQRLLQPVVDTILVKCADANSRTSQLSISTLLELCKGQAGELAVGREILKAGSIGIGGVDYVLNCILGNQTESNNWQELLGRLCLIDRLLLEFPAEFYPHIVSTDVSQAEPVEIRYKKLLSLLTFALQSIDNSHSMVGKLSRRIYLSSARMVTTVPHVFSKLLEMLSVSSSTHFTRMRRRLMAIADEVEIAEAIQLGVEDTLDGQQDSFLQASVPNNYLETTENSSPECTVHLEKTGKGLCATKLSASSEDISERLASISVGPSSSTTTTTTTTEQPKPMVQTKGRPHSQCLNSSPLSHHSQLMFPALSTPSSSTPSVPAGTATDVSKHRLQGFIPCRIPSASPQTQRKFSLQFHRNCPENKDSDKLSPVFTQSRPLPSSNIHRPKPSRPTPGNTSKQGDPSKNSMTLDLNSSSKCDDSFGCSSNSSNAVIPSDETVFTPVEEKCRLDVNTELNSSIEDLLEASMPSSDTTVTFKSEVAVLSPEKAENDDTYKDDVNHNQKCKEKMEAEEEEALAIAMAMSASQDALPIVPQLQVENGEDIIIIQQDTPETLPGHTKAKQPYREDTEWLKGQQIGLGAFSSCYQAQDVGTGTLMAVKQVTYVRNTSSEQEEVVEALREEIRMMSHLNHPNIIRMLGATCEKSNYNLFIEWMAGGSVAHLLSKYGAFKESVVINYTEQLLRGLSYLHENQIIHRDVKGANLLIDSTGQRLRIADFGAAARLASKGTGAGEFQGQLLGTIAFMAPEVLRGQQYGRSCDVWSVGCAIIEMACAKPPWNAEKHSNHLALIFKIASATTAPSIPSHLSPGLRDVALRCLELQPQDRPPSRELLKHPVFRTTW

FLT3 = biological target: T37, FLT3 (Homo sapiens, UniProt P36888)
T37 construct: purchased DiscoverX
T37 sequence (P36888 27-993): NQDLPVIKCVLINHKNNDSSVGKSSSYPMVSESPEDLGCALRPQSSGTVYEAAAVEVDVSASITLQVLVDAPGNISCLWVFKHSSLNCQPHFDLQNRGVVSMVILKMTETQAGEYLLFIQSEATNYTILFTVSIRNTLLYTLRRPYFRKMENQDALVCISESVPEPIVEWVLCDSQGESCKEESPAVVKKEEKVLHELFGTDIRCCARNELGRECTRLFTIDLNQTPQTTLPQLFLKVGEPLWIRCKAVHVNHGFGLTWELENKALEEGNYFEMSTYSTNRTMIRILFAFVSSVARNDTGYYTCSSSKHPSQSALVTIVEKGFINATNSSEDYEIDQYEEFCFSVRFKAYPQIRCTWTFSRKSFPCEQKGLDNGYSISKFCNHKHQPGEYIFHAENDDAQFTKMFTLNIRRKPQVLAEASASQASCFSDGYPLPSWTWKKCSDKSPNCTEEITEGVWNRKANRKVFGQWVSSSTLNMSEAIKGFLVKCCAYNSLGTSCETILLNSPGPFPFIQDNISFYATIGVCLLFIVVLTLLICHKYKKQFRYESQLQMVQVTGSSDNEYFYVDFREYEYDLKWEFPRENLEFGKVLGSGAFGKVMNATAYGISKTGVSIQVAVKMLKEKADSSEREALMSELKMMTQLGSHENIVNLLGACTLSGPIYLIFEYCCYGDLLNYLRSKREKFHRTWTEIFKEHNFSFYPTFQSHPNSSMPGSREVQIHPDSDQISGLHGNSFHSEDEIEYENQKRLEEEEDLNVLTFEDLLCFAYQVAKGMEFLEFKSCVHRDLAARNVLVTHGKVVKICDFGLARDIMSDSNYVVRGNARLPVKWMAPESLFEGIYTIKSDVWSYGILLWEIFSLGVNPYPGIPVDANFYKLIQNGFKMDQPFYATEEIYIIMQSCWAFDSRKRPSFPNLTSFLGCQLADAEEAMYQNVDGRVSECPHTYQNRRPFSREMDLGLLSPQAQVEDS

IKBKE = biological target: T38, IKBKE (Homo sapiens, UniProt Q14164)
T38 construct: purchased DiscoverX

ABL2 = biological target: T39, ABL2 (Homo sapiens, UniProt P42684)
T39 construct: purchased DiscoverX

MAPKAPK3 = biological target: T40, MAPKAPK3 (Homo sapiens, UniProt Q16644)
T40 construct: purchased DiscoverX

EPHB1 = biological target: T41, EPHB1 (Homo sapiens, UniProt P54762)
T41 construct: purchased DiscoverX

BMX = biological target: T42, BMX (Homo sapiens, UniProt P51813)
T42 construct: purchased DiscoverX

Clc1cc2cc(c1)-c1cnn3ccc(nc13)NCCOCCO2 [OD36]
inhibition at 0.1 µM (ACVR1): 95%
inhibition at 0.1 µM (RIPK2): 97%
inhibition at 0.1 µM (PRKX): 17%
inhibition at 0.1 µM (NTRK1): 14%
inhibition at 0.1 µM (RET): 27%
inhibition at 0.1 µM (LRRK2_I2020T): 49%
inhibition at 0.1 µM (PDGFRA_D842V): 47%
inhibition at 0.1 µM (BRAF): 20%
inhibition at 0.1 µM (DYRK2): 2%
inhibition at 0.1 µM (PRKCA): 26%
inhibition at 0.1 µM (STK4): 11%
inhibition at 0.1 µM (PAK4): -3%
inhibition at 0.1 µM (ABL1_Y253F): 3%
inhibition at 0.1 µM (NEK7): 5%
inhibition at 0.1 µM (DNAPK): 13%
inhibition at 0.1 µM (NEK11): 4%
inhibition at 0.1 µM (TGFbR1): 5%
inhibition at 0.1 µM (PAK6): 1%
inhibition at 0.1 µM (STK25): 1%
inhibition at 0.1 µM (LIMK2): 6%
inhibition at 0.1 µM (ROCK1): 1%
inhibition at 0.1 µM (MET_Y1230A): -3%
inhibition at 0.1 µM (MARK3): 8%
inhibition at 0.1 µM (ALK_R1275Q): 6%
inhibition at 0.1 µM (PRKCQ): 12%
inhibition at 0.1 µM (MAPK15): 17%
inhibition at 0.1 µM (ADRBK2): 0%
inhibition at 0.1 µM (INSR): 6%
inhibition at 0.1 µM (TLK2): 31%
inhibition at 0.1 µM (KIT_D816V): 36%
inhibition at 0.1 µM (SRPK3): 9%
inhibition at 0.1 µM (KIT_V559D_T670I): 7%
inhibition at 0.1 µM (GSK3B): 11%
inhibition at 0.1 µM (MERTK): 15%
inhibition at 0.1 µM (FER): 6%
inhibition at 0.1 µM (MAP3K1): 8%
inhibition at 0.1 µM (FLT3): 6%
inhibition at 0.1 µM (IKBKE): 6%
inhibition at 0.1 µM (ABL2): 3%
inhibition at 0.1 µM (MAPKAPK3): -1%
inhibition at 0.1 µM (EPHB1): -2%
inhibition at 0.1 µM (BMX): 9%

Cc1cc2cc(c1)-c1cnn3ccc(nc13)NCCNC(=O)CCN(C)C2 [OD52]
inhibition at 0.1 µM (ACVR1): 90%
inhibition at 0.1 µM (RIPK2): 61%
inhibition at 0.1 µM (PRKX): 34%
inhibition at 0.1 µM (NTRK1): 29%
inhibition at 0.1 µM (RET): 28%
inhibition at 0.1 µM (LRRK2_I2020T): 22%
inhibition at 0.1 µM (PDGFRA_D842V): 17%
inhibition at 0.1 µM (BRAF): 16%
inhibition at 0.1 µM (DYRK2): 9%
inhibition at 0.1 µM (PRKCA): 8%
inhibition at 0.1 µM (STK4): 8%
inhibition at 0.1 µM (PAK4): 7%
inhibition at 0.1 µM (ABL1_Y253F): 7%
inhibition at 0.1 µM (NEK7): 5%
inhibition at 0.1 µM (DNAPK): 4%
inhibition at 0.1 µM (NEK11): 4%
inhibition at 0.1 µM (TGFbR1): 4%
inhibition at 0.1 µM (PAK6): 4%
inhibition at 0.1 µM (STK25): 2%
inhibition at 0.1 µM (LIMK2): 2%
inhibition at 0.1 µM (ROCK1): 1%
inhibition at 0.1 µM (MET_Y1230A): -1%
inhibition at 0.1 µM (MARK3): -1%
inhibition at 0.1 µM (ALK_R1275Q): -1%
inhibition at 0.1 µM (PRKCQ): -2%
inhibition at 0.1 µM (MAPK15): -3%
inhibition at 0.1 µM (ADRBK2): -3%
inhibition at 0.1 µM (INSR): -4%
inhibition at 0.1 µM (TLK2): -5%
inhibition at 0.1 µM (KIT_D816V): -5%
inhibition at 0.1 µM (SRPK3): -5%
inhibition at 0.1 µM (KIT_V559D_T670I): -8%
inhibition at 0.1 µM (GSK3B): -9%
inhibition at 0.1 µM (MERTK): -10%
inhibition at 0.1 µM (FER): -12%
inhibition at 0.1 µM (MAP3K1): -14%
inhibition at 0.1 µM (FLT3): -18%
inhibition at 0.1 µM (IKBKE): -21%
inhibition at 0.1 µM (ABL2): -23%
inhibition at 0.1 µM (MAPKAPK3): -25%
inhibition at 0.1 µM (EPHB1): -26%
inhibition at 0.1 µM (BMX): -34%
